In US8163702B2, “Treatment of melanoma” (SciClone Pharmaceuticals, Inc., priority 2006, dated 2012):

System: murine B16 melanoma
Assay: Antitumor effect in murine B16 melanoma model, tumor size and tumor weight (Example 2)
Format: in vivo, C57BL/6 mice
Details: Day 12
Procedure: As per aseptic tissue culture procedures, one vial of B16 melanoma cells (supplied by Cell Culture Center of CAMS) was thawed and centrifuged at 1000 rpm, 20-25° C. for 5 minutes. The cell pellets were suspended in 0.1-0.5 mL normal saline (NS) and subcutaneously injected into the right axilla of each mouse (approximately 1×10^6 cells/mouse). When the tumor diameter was 1 cm approximately (measured by vernier caliper), the animals were euthanized with CO2 asphyxiation and the tumor was excised. Tumor cells were suspended in normal saline as previously described and the cell adaptation cycle was repeated once.
On Day 0, 1×10^6 B16 cells in a volume of 0.1 mL normal saline were subcutaneously injected into the right axillary area of the mouse. The day of tumor inoculation was defined as Day 0.
Dosing was initiated on Day 1.
Observations were recorded daily for mortality and moribundity. […] The tumors were excised, separated, and weighed.
Tumor volume was calculated using the following formula: Tumor Volume=Length×Width×Width/2 Tumor volume inhibition rate (IR) was calculated according to the formula: IR(TV)=(TVvehicle−TVdrug treated)/TVvehicle×100% TV is the tumor volume on the day of measurement.
The antitumor effect of the test article was also evaluated by tumor weight. The tumor weight of each mouse was recorded after euthanasia, and the inhibition rate of tumor weight was calculated according to the formula: IR(TW)=(Tumor weightvehicle−Tumor weightdrug treated)/Tumor weightvehicle×100%

N[C@H](CCC(=O)N[C@@H](Cc1c[nH]c2ccccc12)C(=O)O)C(=O)O [SCV-07, γ-D-glutamyl-L-tryptophan]
0.3 cm: Tumor measurements L (mouse F5, SCV-07 0.1 mg/kg sc) | Tumor measurements W (mouse F5, SCV-07 0.1 mg/kg sc)
0.36 cm^3: Tumor volumes (mouse M2, SCV-07 0.01 mg/kg sc) | Tumor volumes (mouse M2, SCV-07 0.1 mg/kg sc) | Tumor volumes (mouse M2, SCV-07 5.0 mg/kg sc)
0.00 cm^3: Tumor volumes (mouse F4, SCV-07 1.0 mg/kg sc)
5E−04 cm^3: Tumor volumes (mouse F3, SCV-07 0.01 mg/kg sc)
0.41 cm^3: Tumor volumes (mouse F5, SCV-07 0.01 mg/kg sc)
0.55 cm^3: Tumor volumes (mouse F3, SCV-07 0.1 mg/kg sc)
0.7 cm: Tumor measurements L (mouse F3, SCV-07 5.0 mg/kg sc) | Tumor measurements W (mouse F3, SCV-07 5.0 mg/kg sc) | Tumor measurements W (mouse M1, SCV-07 1.0 mg/kg sc) | Tumor measurements L (mouse M1, SCV-07 5.0 mg/kg sc) | Tumor measurements W (mouse M1, SCV-07 5.0 mg/kg sc)
0.45 cm^3: Tumor volumes (mouse M3, SCV-07 0.01 mg/kg sc)
0.50 cm^3: Tumor volumes (mouse F2, SCV-07 5.0 mg/kg sc) | Tumor volumes (mouse F3, SCV-07 1.0 mg/kg sc) | Tumor volumes (mouse F4, SCV-07 0.01 mg/kg sc) | Tumor volumes (mouse F5, SCV-07 1.0 mg/kg sc) | Tumor volumes (mouse F5, SCV-07 5.0 mg/kg sc) | Tumor volumes (mouse M2, SCV-07 1.0 mg/kg sc)
0.01 cm^3: Tumor volumes (mouse F5, SCV-07 0.1 mg/kg sc)
1.1 cm: Tumor measurements L (mouse F3, SCV-07 0.1 mg/kg sc) | Tumor measurements L (mouse F4, SCV-07 0.1 mg/kg sc) | Tumor measurements W (mouse F4, SCV-07 0.1 mg/kg sc) | Tumor measurements L (mouse M1, SCV-07 0.01 mg/kg sc) | Tumor measurements W (mouse M1, SCV-07 0.01 mg/kg sc) | Tumor measurements L (mouse M1, SCV-07 0.1 mg/kg sc) | Tumor measurements W (mouse M1, SCV-07 0.1 mg/kg sc) | Tumor measurements L (mouse M3, SCV-07 0.01 mg/kg sc) | Tumor measurements L (mouse M3, SCV-07 0.1 mg/kg sc) | Tumor measurements W (mouse M3, SCV-07 0.1 mg/kg sc)
1.0 cm: Tumor measurements L (mouse F2, SCV-07 5.0 mg/kg sc) | Tumor measurements W (mouse F2, SCV-07 5.0 mg/kg sc) | Tumor measurements W (mouse F3, SCV-07 0.1 mg/kg sc) | Tumor measurements L (mouse F3, SCV-07 1.0 mg/kg sc) | Tumor measurements W (mouse F3, SCV-07 1.0 mg/kg sc) | Tumor measurements L (mouse F4, SCV-07 0.01 mg/kg sc) | Tumor measurements W (mouse F4, SCV-07 0.01 mg/kg sc) | Tumor measurements L (mouse F5, SCV-07 0.01 mg/kg sc) | Tumor measurements L (mouse F5, SCV-07 1.0 mg/kg sc) | Tumor measurements W (mouse F5, SCV-07 1.0 mg/kg sc) | Tumor measurements L (mouse F5, SCV-07 5.0 mg/kg sc) | Tumor measurements W (mouse F5, SCV-07 5.0 mg/kg sc) | Tumor measurements L (mouse M2, SCV-07 1.0 mg/kg sc) | Tumor measurements W (mouse M2, SCV-07 1.0 mg/kg sc)
0.17 cm^3: Tumor volumes (mouse F3, SCV-07 5.0 mg/kg sc) | Tumor volumes (mouse M1, SCV-07 5.0 mg/kg sc)
0.20 cm^3: Tumor volumes (mouse M1, SCV-07 1.0 mg/kg sc)
0.8 cm: Tumor measurements L (mouse F4, SCV-07 5.0 mg/kg sc) | Tumor measurements W (mouse F4, SCV-07 5.0 mg/kg sc) | Tumor measurements L (mouse M1, SCV-07 1.0 mg/kg sc)
0.67 cm^3: Tumor volumes (mouse F4, SCV-07 0.1 mg/kg sc) | Tumor volumes (mouse M1, SCV-07 0.01 mg/kg sc) | Tumor volumes (mouse M1, SCV-07 0.1 mg/kg sc)
0.1 cm: Tumor measurements L (mouse F3, SCV-07 0.01 mg/kg sc) | Tumor measurements W (mouse F3, SCV-07 0.01 mg/kg sc) | Tumor measurements L (mouse F4, SCV-07 1.0 mg/kg sc) | Tumor measurements W (mouse F4, SCV-07 1.0 mg/kg sc)
0.9 cm: Tumor measurements W (mouse F5, SCV-07 0.01 mg/kg sc) | Tumor measurements L (mouse M2, SCV-07 0.01 mg/kg sc) | Tumor measurements W (mouse M2, SCV-07 0.01 mg/kg sc) | Tumor measurements L (mouse M2, SCV-07 0.1 mg/kg sc) | Tumor measurements W (mouse M2, SCV-07 0.1 mg/kg sc) | Tumor measurements L (mouse M2, SCV-07 5.0 mg/kg sc) | Tumor measurements W (mouse M2, SCV-07 5.0 mg/kg sc) | Tumor measurements W (mouse M3, SCV-07 0.01 mg/kg sc)
0.26 cm^3: Tumor volumes (mouse F4, SCV-07 5.0 mg/kg sc)
